Experimental data: the NIST ThermoML archive (doi:10.1016/j.fluid.2014.02.029)
± gives the expanded uncertainty stated by the source.

Settings: 100 kPa, Liquid, Vibrating tube method

Row | SMILES | mass density (293.15 K) | mass density (303.15 K) | mass density (313.15 K) | mass density (323.15 K) | mass density (333.15 K)
1 | CCCCOCCOC(C)=O [2-butoxyethyl acetate] | 940.7 ± 0.77 kg/m3 | 930.89 ± 0.76 kg/m3 | 921.05 ± 0.75 kg/m3 | 911.18 ± 0.74 kg/m3 | 901.29 ± 0.73 kg/m3
2 | CCOCCOCCOC(C)=O [2-(2-ethoxyethoxy)ethyl acetate] | 1009.46 ± 0.25 kg/m3 | 999.19 ± 0.24 kg/m3 | 988.92 ± 0.24 kg/m3 | 978.66 ± 0.24 kg/m3 | 968.38 ± 0.24 kg/m3
